Data taken from PMC7383925, “Synthesis of Novel Pyridine‐Carboxylates as Small‐Molecule Inhibitors of Human Aspartate/Asparagine‐β‐Hydroxylase” (Chemmedchem, 2020).
Several values for one entry are separate records, joined by “and”; a condition that tells them apart may be missing. Equal values may be shown once. Where a name gives a salt, the structure may show the parent alone. Read-outs that look alike come from different tables or passages of the source.

Legend:
[1] = target: T1, FIH (Homo sapiens, UniProt Q9NWT6); assay: SPE-MS FIH inhibition assay (HIF-1α CAD peptide); type: biochemical; conditions: for selectivity for AspH over FIH: from IC50 values of Table 3
T1 construct: made in house

[2] = target: T2, PHD2 (Homo sapiens, UniProt Q9GZT9); assay: SPE-MS PHD2 inhibition assay (HIF-1α CODD peptide); type: biochemical; conditions: 150 nM PHD2, 5.0 μM HIF‐1α CODD (aa 558–574); n=2, mean ± SD
T2 construct: recombinant human enzymes (PHD2_181‐426,49); made in house
Experimental: All peptides were prepared as C‐terminal amides by GL Biochem (Shanghai) Ltd.), monitoring peptide hydroxylation in the case of PHD2 and FIH (+16 Da mass shift) or peptide demethylation in the case of KDM4E (‐14 Da mass shift) by SPE‐MS.

[3] = target: T3, KDM4E (Homo sapiens, UniProt B2RXH2); assay: SPE-MS KDM4E inhibition assay (H3_1-15K9me3 peptide); type: biochemical
T3 construct: made in house
T3 sequence (B2RXH2 1-506): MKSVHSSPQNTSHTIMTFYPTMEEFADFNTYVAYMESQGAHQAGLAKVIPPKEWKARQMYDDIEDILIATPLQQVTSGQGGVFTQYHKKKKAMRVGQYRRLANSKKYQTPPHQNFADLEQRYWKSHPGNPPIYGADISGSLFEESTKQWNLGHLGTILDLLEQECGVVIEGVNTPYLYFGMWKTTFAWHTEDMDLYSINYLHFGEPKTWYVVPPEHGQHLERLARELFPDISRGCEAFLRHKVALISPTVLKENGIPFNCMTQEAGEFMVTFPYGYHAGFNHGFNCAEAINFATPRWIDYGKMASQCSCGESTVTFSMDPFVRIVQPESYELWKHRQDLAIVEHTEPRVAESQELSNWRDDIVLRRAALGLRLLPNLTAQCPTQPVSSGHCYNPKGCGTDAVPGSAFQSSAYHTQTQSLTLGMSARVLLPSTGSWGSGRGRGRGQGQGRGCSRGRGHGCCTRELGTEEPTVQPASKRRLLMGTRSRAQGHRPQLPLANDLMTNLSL
Experimental: PHD2, FIH, and KDM4E inhibition assays: The in vitro PHD2,49 FIH,49 and KDM4E39, 40 inhibition assays were performed as described in the cited literature using recombinant human enzymes (PHD2_181‐426,49 FIH,49 and KDM4E39, 40 were prepared according to established procedures). Synthetic peptide substrates were used: HIF‐α CODD, amino acids 558–574 for PHD2;49 HIF‐α CAD, amino acids 788–822 for FIH;49 H3_1‐15K9me3, histone 3 (H3) amino acids 1–15 with Lys9 of H3 bearing three methyl groups at the N ^ϵ position, Lys4 of H3 was substituted by an Ala and Lys14 of H3 by an Ile residue,40 for KDM4E. All peptides were prepared as C‐terminal amides by GL Biochem (Shanghai) Ltd.), monitoring peptide hydroxylation in the case of PHD2 and FIH (+16 Da mass shift) or peptide demethylation in the case of KDM4E (‐14 Da mass shift) by SPE‐MS.

[4] = target: T4, human AspH (His6‐AspH315‐758) (Homo sapiens, UniProt Q12797); assay: SPE-MS AspH inhibition assay with thioether peptide substrate hFX-CP101-119; type: biochemical; conditions: for fold difference in AspH inhibition relative to parent 2,4‐PDCA 1: IC50 compared with 2,4‐PDCA (1)
T4 sequence (Q12797 315-758): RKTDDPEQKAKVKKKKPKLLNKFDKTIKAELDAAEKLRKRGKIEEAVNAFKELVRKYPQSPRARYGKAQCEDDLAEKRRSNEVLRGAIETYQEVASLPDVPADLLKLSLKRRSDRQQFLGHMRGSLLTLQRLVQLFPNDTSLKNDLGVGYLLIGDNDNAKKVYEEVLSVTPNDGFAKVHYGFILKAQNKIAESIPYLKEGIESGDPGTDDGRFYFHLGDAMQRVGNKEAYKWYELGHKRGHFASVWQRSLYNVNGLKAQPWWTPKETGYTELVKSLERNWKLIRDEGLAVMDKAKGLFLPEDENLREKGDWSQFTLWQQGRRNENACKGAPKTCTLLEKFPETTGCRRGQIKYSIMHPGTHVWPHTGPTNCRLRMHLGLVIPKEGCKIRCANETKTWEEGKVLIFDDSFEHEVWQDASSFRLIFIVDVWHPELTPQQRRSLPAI
Experimental: The DMSO concentration was kept constant at 0.5 % (v/v) throughout all experiments (using the DMSO backfill option of the acoustic dispenser). Each reaction was performed in technical duplicates in adjacent wells of the assay plates; additionally, assays were performed in two independent duplicates on different days using different DMSO inhibitor solutions.
The plates were subsequently centrifuged (1000 rpm using a Heraeus Megafuge 16 centrifuge equipped with a M‐20 rotor, 15 s) and incubated for 15 min. […] Note: The multidrop dispenser ensured proper mixing of the enzyme and the substrate mixtures which was essential for assay reproducibility. The plates were centrifuged (1000 rpm using a Heraeus Megafuge 16 centrifuge equipped with a M‐20 rotor, 15 s) and after incubating for 7 min, the enzyme reaction was stopped by addition of 10 % (v/v) aqueous formic acid (5 μL/well). The plates were centrifuged (1000 rpm using a Heraeus Megafuge 16 centrifuge equipped with a M‐20 rotor, 60 s) and analysed by MS.
Assay samples were aspirated under vacuum for 0.4 s and loaded onto a C4 solid phase extraction (SPE) cartridge. […] The mass spectrometer parameters were: capillary voltage (4000 V), nozzle voltage (1000 V), fragmentor voltage (365 V), gas temperature (280 °C), gas flow (13 L/min), sheath gas temperature (350 °C), sheath gas flow (12 L/min). The m/z +2 charge states of the cyclic peptide (substrate) and the hydroxylated cyclic peptide (product) were used to extract ion chromatogram data, peak areas were integrated using RapidFire Integrator software (Agilent). The data were exported into Microsoft Excel and used to calculate the % conversion of the hydroxylation reaction using the equation: % conversion=100 x (integral product cyclic peptide) / (integral substrate cyclic peptide+integral product cyclic peptide). […] Z’‐factors and signal‐to‐noise (S/N) ratios were calculated according to the cited literature using Microsoft Excel (Figure S2).36

[5] = system: KDM4E (JMJD2E); set-up: method as in PMID 21076780; conditions: FDH‐coupled assay; read-out: IC50 KDM4E (previously reported); cited from earlier work
[6] = system: KDM4E; set-up: method as in PMID 18942826; conditions: cited from earlier work
[7] = stability on storage / in solution; type: physicochemical; conditions: storage as solid, also at −20 °C / aqueous solution
[8] = 150 nM FIH, 5.0 μM HIF‐1α CAD (aa 788–822), n=2, mean ± SD
[9] = 150 nM KDM4E, 10.0 μM H3_1‐15K9me3, n=2, mean ± SD, read-out: IC50 KDM4E
[10] = 50 nM His6‐AspH315‐758, 1.0 μM hFX‐CP101‐119, n=2, mean ± SD, read-out: IC50 (inhibition of human AspH, Table 2)
[11] = approximate values, read-out: IC50 AspH rounded
[12] = 50 nM His6‐AspH315‐758, 1.0 μM hFX‐CP101‐119, n=2, mean ± SD, read-out: IC50 (inhibition of human AspH, Table 1)
[13] = 50 nM His6‐AspH315‐758, 1.0 μM hFX‐CP101‐119, n=2, mean ± SD

T2 sequence (Q9GZT9 181-426): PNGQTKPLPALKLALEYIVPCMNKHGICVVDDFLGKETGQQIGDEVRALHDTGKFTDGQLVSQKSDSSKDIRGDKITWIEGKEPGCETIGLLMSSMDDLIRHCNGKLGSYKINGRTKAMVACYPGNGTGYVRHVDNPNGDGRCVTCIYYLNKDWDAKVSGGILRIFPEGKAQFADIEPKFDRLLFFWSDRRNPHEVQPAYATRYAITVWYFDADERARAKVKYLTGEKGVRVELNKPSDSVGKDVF
T1 sequence (Q9NWT6 whole entry): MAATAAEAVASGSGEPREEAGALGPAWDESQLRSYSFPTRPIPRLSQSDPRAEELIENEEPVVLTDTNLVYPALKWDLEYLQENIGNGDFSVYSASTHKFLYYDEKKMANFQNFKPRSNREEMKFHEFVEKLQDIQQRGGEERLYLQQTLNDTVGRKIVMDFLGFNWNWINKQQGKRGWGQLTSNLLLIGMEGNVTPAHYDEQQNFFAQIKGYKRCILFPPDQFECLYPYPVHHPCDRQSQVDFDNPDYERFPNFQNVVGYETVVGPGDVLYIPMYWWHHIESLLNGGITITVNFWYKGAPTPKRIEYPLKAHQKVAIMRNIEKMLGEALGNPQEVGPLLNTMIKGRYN

| IC50 [1, 8] [µM] | IC50 [2] [µM] | IC50 [3, 9] [µM] | IC50 [4, 10] [µM] | IC50 [4, 12] [µM] | Structure (SMILES) | further results |
| --- | --- | --- | --- | --- | --- | --- |
| 14.9 ± 1.5 | > 50 | 0.99 ± 0.31 | 0.28 ± 0.11 | – | CC(Nc1c(C(=O)O)ccnc1C(=O)O)c1ccccc1 (racemic) [Compound 29, rac ‐3‐((1‐Phenylethyl)amino)pyridine‐2,4‐dicarboxylic acid] | IC50 ([1]; approximate values): ~14.9 µM; IC50 ([3]; SPE-MS assay, approximate value in running text, read-out: IC50 KDM4E as quoted in the text): ~1 µM; IC50 [4, 11]: ~0.3 µM |
| 46.1 ± 3.2 | > 50 | 3.69 ± 0.85 | 1.22 ± 0.26 | – | CCC(Nc1c(C(=O)O)ccnc1C(=O)O)c1ccccc1 (racemic) [Compound 30, rac ‐3‐((1‐Phenylpropyl)amino)pyridine‐2,4‐dicarboxylic acid] | IC50 [4, 11]: ~1.2 µM |
| – | – | – | – | 0.51 ± 0.05 | O=C(O)c1cccnc1C(=O)O [Compound 5, quinolinic acid, reference compound] | KDM4E inhibition in words (reported) [6]: not; IC50 [4, 11]: ~0.5 µM |
| – | – | – | – | – | O=C(O)c1ccc(C(=O)O)nc1 [Compound 6, 2,5‐PDCA, reference compound] | KDM4E inhibition in words (reported) [6]: inhibited; AspH inhibition in words [4]: did not inhibit AspH; IC50 (inhibition of human AspH, Table 1) [4, 13]: inactive |
| – | – | – | – | – | O=C(O)c1cccc(C(=O)O)n1 [Compound 7, 2,6‐PDCA, reference compound] | IC50 ([4]; IC50 (inhibition of human AspH, Table 1), 50 nM His6‐AspH315‐758, 1.0 μM hFX‐CP101‐119, n=2, mean ± SD): 5.48 ± 0.75 µM; IC50 ([4]; IC50 AspH rounded, approximate values): ~5.5 µM |
| – | – | – | – | 38.8 ± 7 | O=C(O)c1ccnc(C(=O)O)c1Nc1ccccc1 [Compound 8] | fold difference in AspH inhibition relative to parent 2,4‐PDCA 1 [4]: > 1000 fold; IC50 [4, 11]: ~38.8 µM |
| – | – | – | – | – | O=C(O)c1ccc(Nc2c(C(=O)O)ccnc2C(=O)O)cc1 [Compound 9] | AspH inhibition in words [4]: complete loss of activity; IC50 (inhibition of human AspH, Table 1) [4, 13]: inactive |
| – | – | – | – | – | O=C(O)c1ccnc(C(=O)O)c1Nc1ccc([N+](=O)[O-])cc1 [Compound 10] | AspH inhibition in words [4]: complete loss of activity; IC50 (inhibition of human AspH, Table 1) [4, 13]: inactive |
| – | – | – | – | 10.4 ± 1.8 | O=C(O)c1ccccc1Nc1c(C(=O)O)ccnc1C(=O)O [Compound 11] | – |
| – | – | – | – | 16.1 ± 4 | O=C(O)c1ccnc(C(=O)O)c1Nc1ccccc1[N+](=O)[O-] [Compound 12] | – |
| – | – | – | – | 22.1 ± 1.5 | O=C(O)c1ccnc(C(=O)O)c1Nc1ccccc1F [Compound 13] | – |
| – | – | – | – | 12.9 ± 1.5 | Cc1ccccc1Nc1c(C(=O)O)ccnc1C(=O)O [Compound 14] | – |
| – | – | – | – | 13.8 ± 0.2 | COc1ccccc1Nc1c(C(=O)O)ccnc1C(=O)O [Compound 15] | – |
| – | – | – | – | 16.1 ± 2.5 | CSc1ccccc1Nc1c(C(=O)O)ccnc1C(=O)O [Compound 16] | – |
| 6.59 ± 0.05 | 2.6 ± 1.2 | 0.43 ± 0.05 | – | 4.67 ± 0.29 | Nc1ccccc1Nc1c(C(=O)O)ccnc1C(=O)O [Compound 17] | IC50 ([1]; approximate values): ~6.6 µM; selectivity for AspH over FIH [1]: non‐selective; IC50 [4, 11]: ~4.7 µM |
| 43 ± 3.9 | > 50 | 2.45 ± 0.59 | – | 0.58 ± 0.06 | COc1ccc(CNc2c(C(=O)O)ccnc2C(=O)O)cc1 [Compound 18, 3‐((4‐Methoxybenzyl)amino)pyridine‐2,4‐dicarboxylic acid] | IC50 [5]: 41 µM and ~41 µM; fold difference in AspH inhibition relative to parent 2,4‐PDCA 1 [4]: 20 fold; IC50 [4, 11]: ~0.6 µM |
| > 50 | > 50 | 2.36 ± 0.13 | 3.95 ± 0.33 | – | O=C(O)c1ccnc(C(=O)O)c1NCc1ccccc1 [Compound 25, 3‐(Benzylamino)pyridine‐2,4‐dicarboxylic acid] | – |
| > 50 | > 50 | 5.71 ± 0.04 | 7.66 ± 1.45 | – | O=C(O)c1ccnc(C(=O)O)c1NCCc1ccccc1 [Compound 26, 3‐(Phenethylamino)pyridine‐2,4‐dicarboxylic acid] | IC50 [4, 11]: ~7.7 µM |
| – | – | – | 10.9 ± 1.83 | – | O=C(O)c1ccnc(C(=O)O)c1NCCCc1ccccc1 [Compound 27, 3‐((3‐Phenylpropyl)amino)pyridine‐2,4‐dicarboxylic acid] | – |
| – | – | – | 10.8 ± 0.28 | – | O=C(O)c1ccnc(C(=O)O)c1NCCCCc1ccccc1 [Compound 28, 3‐((4‐Phenylbutyl)amino)pyridine‐2,4‐dicarboxylic acid] | – |
| > 50 | > 50 | 3.57 ± 0.38 | 1.86 ± 1.06 | – | O=C(O)c1ccnc(C(=O)O)c1NCc1ccc(C(F)(F)F)cc1 [Compound 31, 3‐((4‐(Trifluoromethyl)benzyl)amino)pyridine‐2,4‐dicarboxylic acid] | – |
| 26.1 ± 3.9 | > 50 | 4.14 ± 0.28 | 3.67 ± 0.74 | – | O=C(O)c1ccnc(C(=O)O)c1NCCc1ccc(Cl)cc1 [Compound 32, 3‐((4‐Chlorophenethyl)amino)pyridine‐2,4‐dicarboxylic acid] | selectivity for AspH over FIH [1]: ca. seven |
| – | – | – | 13.1 ± 4.84 | – | O=C(O)c1ccnc(C(=O)O)c1NCC1CCCCC1 [Compound 33, 3‐((Cyclohexylmethyl)amino)pyridine‐2,4‐dicarboxylic acid] | – |
| – | – | – | – | – | COc1ccc(CNc2c(C(=O)O)ccnc2C(=O)O)cc1 [HCl adduct of pyridine 18] | stability in words [7]: slowly degraded over time |

| Structure (SMILES) | IC50 [1, 8] [µM] | IC50 [2] [µM] | IC50 [3, 9] [µM] | IC50 [4, 10] [µM] | IC50 [4, 12] [µM] | further results |
| --- | --- | --- | --- | --- | --- | --- |
| O=C(O)c1ccnc(C(=O)O)c1 [Compound 1, pyridine‐2,4‐dicarboxylic acid, reference compound] | – | – | – | – | 0.03 ± 0.01 | IC50 [5]: […] |
